According to patent publication US5677281A, “Use of peptide derivatives for the preparation of medicaments inhibiting endopeptidases 24.15 and 24.16” (Commissariat a l'Energie Atomique, priority 1992, dated 1997):
Entries after “also recorded” stand apart in the source; their conditions may differ. Like-named read-outs stand apart in the source and are kept apart here. Residues, ends and D or L forms follow the SMILES beside them.

Columns and labels:
endopeptidase 24.16 [1] = target: endopeptidase 24.16 (Homo sapiens, UniProt Q9BYT8); conditions: Dauch et al, cited from earlier work
endopeptidase 24.15 [2] = target: endopeptidase 24.15 (Homo sapiens, UniProt P52888); conditions: cited from earlier work
endopeptidase 24.16 [3] = target: T1, endopeptidase 24.16 (Rattus norvegicus, UniProt P42676); assay: Inhibition of endopeptidase 24.16, fluorimetry with substrate Mcc-Pro-Leu-Gly-Pro-DLys-Dnp (Example 8); type: biochemical; conditions: 1 h, 37° C., pH 7.5, read-out: inhibition constant Ki
Experimental: After incubating for 1 h, the solutions are analyzed by fluorimetry, as described by Dauch et al, Biochem. J., 280, pp.421-426, 1991a.

endopeptidase 24.16 [4] = target: T1, endopeptidase 24.16; assay: Inhibition of endopeptidase 24.16, neurotensin as substrate, HPLC (Example 9); type: biochemical
Experimental: (§1) After incubation, it is interrupted by acidification and the solution analyzed by high performance liquid chromatography (HPLC) using an elution system constituted by a linear gradient of 42 min of 0.1% trifluoroacetic acid and 0.05% triethyl amine in acetonitrile, ranging between 9/1 and 3/1, as described by Checler et al, Biochimie 70, pp.75-82, 1988.
The results obtained are given in FIGS. 2 to 7, which show chromatograms obtained by measuring the optical density at 230 nm as a function of time (min).

endopeptidase 24.15 [5] = target: T2, endopeptidase 24.15 (Rattus norvegicus, UniProt P24155); assay: Inhibition of endopeptidase 24.15, substrate Bz-Gly-Ala-Ala-Phe-pAB, HPLC (Example 10); type: biochemical; conditions: 37° C.
Experimental: Following incubation, acidification and HPLC analysis on an inverse phase take place using a linear gradient elution system of 63 min of 0.1% trifluoroacetic acid and 0.05% triethyl amine in acetonitrile between 9/1 (v/v) and 5.5/4.5 (v/v), as described by Checler et al in Biochimie 70, pp.75-82, 1988.

endopeptidase 24.15 [6] = target: T2, endopeptidase 24.15; assay: Inhibition of endopeptidase 24.15, neurotensin as substrate, HPLC (Example 11); type: biochemical; conditions: 37° C.
Experimental: This example uses the same operating procedure as in example 10, but using neurotensin as the endopeptidase 24.15 substrate.
(§2) After incubating for 42 min, acidification and analysis takes place of the liquid phase by HPLC in reverse phase using linear gradients of the trifluoroacetic acid, triethyl amine and acetonitrile system, as in example 3.

carboxypeptidase A = target: T3, carboxypeptidase A (Bos taurus, UniProt P00730); assay: Effect on carboxypeptidase A, substrate Hippuryl-Phe, HPLC (Example 12); type: biochemical; conditions: 1 μmole/l of inhibitor, 15 min, 37° C.
T3 sequence (P00730 111-419): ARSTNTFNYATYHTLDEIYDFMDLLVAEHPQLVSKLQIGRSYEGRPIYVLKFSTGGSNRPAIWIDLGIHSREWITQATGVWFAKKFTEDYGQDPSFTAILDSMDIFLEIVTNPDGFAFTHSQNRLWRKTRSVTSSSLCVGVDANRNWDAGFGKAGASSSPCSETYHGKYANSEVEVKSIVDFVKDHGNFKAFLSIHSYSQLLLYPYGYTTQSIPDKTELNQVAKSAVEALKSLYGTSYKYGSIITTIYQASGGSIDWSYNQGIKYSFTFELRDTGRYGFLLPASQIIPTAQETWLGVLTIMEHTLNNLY
Experimental: After 15 min incubation, the solution is analyzed by HPLC.

leucine aminopeptidase = assay: Effect on leucine aminopeptidase, substrate Leu-7AMC, HPLC (Example 13); type: biochemical; conditions: 1 μmole/l of inhibitor, 15 min, 37° C.
Experimental: After incubating for 15 min, the reaction medium is analyzed by HPLC.

[7] = target: angiotensin conversion enzyme (Homo sapiens, UniProt P12821); assay: Effect on angiotensin conversion enzyme, substrate Hippuryl-His-Leu, HPLC (Example 14); type: biochemical; conditions: 1 μmole/l of inhibitor, 15 min, 37° C.
endopeptidase 24.11 = assay: Effect on endopeptidase 24.11, hydrolysis of neurotensin (Example 15); type: biochemical
Experimental: The hydrolysis of 2 nM of neurotensin is followed by 9 μg of endopeptidase 24.11 under the conditions described in example 3.

endopeptidase 24.16 [8] = target: T1, endopeptidase 24.16; assay: Inhibition of endopeptidase 24.16, neurotensin, Tris-HCl 25 mM pH 7, 25° C. (Example 16); type: biochemical; conditions: read-out: Endopeptidases 24.16 Ki
Experimental: as §1
As in example 9, this example studies the inhibiting effect of the compounds of examples 1 to 7 on endopeptidase 24.16 using neurotensin as the substrate and operating in the same way, except that use is made of a Tris-HCl, 25 mM, pH 7 buffer and a temperature of 25° C.

endopeptidase 24.15 [9] = target: T2, endopeptidase 24.15; assay: Inhibition of endopeptidase 24.15, neurotensin, Tris-HCl 25 mM pH 7, 25° C. (Example 17); type: biochemical; conditions: read-out: Endopeptidases 24.15 Ki
Experimental: as §2
As in example 11, this example studies the inhibiting effect of the compounds of examples 1 to 7 on endopeptidase 24.15 using neurotensin as the substrate and working under the same conditions, except that use is made of a Tris-HCl 25 mM, pH 7 buffer and a temperature of 25° C.

T2 sequence (P24155 whole entry): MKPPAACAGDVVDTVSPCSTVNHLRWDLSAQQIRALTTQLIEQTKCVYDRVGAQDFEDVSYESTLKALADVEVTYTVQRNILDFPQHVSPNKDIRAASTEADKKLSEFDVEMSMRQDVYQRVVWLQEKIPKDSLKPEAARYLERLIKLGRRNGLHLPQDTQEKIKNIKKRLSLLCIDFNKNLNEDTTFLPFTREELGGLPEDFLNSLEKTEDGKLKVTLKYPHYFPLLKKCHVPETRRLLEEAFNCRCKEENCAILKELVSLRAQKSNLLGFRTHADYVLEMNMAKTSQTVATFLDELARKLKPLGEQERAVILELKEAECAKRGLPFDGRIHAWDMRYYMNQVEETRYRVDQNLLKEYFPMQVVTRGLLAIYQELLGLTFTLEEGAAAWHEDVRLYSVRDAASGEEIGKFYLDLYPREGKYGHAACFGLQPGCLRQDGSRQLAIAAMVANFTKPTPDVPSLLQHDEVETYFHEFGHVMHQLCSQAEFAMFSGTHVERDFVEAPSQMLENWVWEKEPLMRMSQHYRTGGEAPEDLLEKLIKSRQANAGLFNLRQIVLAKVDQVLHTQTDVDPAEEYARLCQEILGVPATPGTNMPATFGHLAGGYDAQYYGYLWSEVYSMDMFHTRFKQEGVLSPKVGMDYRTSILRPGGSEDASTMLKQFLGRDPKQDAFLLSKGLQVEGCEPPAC
T1 sequence (P42676 38-704): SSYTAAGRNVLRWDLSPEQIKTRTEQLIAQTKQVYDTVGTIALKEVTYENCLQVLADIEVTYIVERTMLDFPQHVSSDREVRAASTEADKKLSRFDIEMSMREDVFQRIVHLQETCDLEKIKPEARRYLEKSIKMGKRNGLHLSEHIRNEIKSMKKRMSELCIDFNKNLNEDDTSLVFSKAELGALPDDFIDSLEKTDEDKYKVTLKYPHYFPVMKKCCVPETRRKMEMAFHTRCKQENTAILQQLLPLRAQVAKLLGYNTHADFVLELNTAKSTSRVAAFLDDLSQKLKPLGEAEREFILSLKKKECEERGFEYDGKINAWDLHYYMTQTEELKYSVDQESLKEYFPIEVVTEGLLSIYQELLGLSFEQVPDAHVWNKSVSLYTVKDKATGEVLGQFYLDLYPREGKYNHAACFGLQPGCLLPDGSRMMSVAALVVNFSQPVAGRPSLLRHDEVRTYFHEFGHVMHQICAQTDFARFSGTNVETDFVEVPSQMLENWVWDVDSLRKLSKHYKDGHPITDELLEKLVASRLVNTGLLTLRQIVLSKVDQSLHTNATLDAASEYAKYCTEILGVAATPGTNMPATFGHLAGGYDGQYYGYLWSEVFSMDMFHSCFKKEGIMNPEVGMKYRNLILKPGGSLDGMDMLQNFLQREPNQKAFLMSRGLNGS
endopeptidase 24.16 (Homo sapiens, UniProt Q9BYT8), sequence (Q9BYT8 38-704): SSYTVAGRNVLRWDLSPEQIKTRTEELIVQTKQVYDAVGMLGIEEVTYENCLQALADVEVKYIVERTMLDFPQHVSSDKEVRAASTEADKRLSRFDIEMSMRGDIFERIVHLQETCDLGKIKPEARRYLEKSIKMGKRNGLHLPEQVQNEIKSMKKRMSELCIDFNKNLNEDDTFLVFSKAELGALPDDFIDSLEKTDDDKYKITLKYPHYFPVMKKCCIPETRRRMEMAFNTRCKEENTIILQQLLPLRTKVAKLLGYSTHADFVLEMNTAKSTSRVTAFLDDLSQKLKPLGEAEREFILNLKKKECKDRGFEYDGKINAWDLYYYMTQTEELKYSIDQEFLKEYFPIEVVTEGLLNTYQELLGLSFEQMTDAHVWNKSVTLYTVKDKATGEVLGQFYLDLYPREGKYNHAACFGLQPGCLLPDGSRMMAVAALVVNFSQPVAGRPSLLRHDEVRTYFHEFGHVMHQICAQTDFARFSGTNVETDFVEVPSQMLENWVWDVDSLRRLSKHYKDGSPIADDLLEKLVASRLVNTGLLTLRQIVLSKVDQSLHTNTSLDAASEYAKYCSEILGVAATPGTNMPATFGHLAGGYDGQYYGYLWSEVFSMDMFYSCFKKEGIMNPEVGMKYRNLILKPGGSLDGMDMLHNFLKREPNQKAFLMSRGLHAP
angiotensin conversion enzyme, sequence (P12821 30-1306): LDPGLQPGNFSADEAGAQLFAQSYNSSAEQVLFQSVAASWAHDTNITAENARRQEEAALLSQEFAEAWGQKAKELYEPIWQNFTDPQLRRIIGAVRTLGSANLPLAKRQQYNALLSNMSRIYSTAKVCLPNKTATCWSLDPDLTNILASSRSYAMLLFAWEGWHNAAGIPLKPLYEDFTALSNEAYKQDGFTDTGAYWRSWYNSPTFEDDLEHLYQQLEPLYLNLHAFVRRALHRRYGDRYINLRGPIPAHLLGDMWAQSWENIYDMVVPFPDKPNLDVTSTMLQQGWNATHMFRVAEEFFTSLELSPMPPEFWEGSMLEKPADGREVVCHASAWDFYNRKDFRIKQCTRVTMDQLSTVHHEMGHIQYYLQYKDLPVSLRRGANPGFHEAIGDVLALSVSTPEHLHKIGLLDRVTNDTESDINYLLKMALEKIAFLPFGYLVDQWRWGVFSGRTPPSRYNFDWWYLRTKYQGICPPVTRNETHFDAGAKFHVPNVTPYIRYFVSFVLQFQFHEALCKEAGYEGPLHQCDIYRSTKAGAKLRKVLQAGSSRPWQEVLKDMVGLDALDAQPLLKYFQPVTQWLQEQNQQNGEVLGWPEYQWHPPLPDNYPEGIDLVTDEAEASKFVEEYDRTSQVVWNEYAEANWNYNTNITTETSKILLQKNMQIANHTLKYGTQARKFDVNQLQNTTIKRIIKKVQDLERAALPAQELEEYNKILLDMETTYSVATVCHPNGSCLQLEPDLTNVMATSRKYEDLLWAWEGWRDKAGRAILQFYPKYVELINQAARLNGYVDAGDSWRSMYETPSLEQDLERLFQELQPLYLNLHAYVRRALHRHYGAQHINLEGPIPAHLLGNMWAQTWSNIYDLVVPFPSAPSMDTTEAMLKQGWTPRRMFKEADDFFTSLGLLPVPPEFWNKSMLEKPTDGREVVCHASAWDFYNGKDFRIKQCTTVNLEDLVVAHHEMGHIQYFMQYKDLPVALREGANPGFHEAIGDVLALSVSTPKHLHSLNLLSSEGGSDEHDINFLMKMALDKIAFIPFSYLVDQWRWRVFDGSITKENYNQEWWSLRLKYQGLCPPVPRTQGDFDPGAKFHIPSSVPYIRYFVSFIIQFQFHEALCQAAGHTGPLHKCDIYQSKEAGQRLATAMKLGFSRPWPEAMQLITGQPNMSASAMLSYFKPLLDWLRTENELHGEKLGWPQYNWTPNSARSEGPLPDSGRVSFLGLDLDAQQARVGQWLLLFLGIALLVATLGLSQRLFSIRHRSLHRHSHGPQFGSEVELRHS
endopeptidase 24.15 (Homo sapiens, UniProt P52888), sequence (P52888 whole entry, species assumed): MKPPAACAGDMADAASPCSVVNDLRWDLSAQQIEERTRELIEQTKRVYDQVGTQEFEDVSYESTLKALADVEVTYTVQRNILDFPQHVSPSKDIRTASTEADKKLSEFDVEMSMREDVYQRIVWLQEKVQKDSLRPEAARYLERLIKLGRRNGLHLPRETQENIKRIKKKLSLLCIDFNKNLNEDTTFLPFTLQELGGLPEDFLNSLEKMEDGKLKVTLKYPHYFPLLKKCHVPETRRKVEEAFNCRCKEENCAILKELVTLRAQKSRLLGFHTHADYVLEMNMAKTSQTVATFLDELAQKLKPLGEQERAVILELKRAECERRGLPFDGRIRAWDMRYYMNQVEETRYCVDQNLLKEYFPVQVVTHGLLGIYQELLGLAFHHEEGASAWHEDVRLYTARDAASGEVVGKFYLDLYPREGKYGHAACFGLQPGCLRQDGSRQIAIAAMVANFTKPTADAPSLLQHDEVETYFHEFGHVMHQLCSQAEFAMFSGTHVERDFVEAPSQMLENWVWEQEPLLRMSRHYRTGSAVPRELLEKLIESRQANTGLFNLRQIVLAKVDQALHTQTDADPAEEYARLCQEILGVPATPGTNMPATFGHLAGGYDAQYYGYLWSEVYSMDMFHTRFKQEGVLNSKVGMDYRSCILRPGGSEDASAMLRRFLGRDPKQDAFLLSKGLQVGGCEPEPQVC

For `C[C@H](NC(=O)[C@H](C)NC(CCc1ccccc1)C(=O)O)C(=O)N[C@@H](Cc1ccc(O)cc1)C(=O)Nc1ccc(C(=O)O)cc1` (stereo partly drawn) [CPP-Ala-Ala-Tyr-pAB], the Ki (endopeptidase 24.16 [1]; Biochem. J. 280, 1991, read-out: inhibition constant, endopeptidase 24.16) is given as 1000 nM and the Ki (endopeptidase 24.15 [2]; Orlowski et al, Biochemistry 27, 1988, read-out: inhibition constant, endopeptidase 24.15) is given as 16 nM.
In the case of `CC[C@H](C)[C@H](NC(=O)[C@@H]1CCCN1)C(=O)O` [Pro-Ile] (H-Pro-Ile-OH), the Ki (endopeptidase 24.16 [1]; Eur. J. Biochem. 202, 1991b, read-out: Ki inhibition of endopeptidase 24.16) is listed as 90000 nM and the “inhibiting action on endopeptidase 24.15” value (endopeptidase 24.15 [2]; at a concentration as high as 5 mN) is listed as “no inhibiting action”.
For phosphodiepryl O3, the Ki (endopeptidase 24.16 [3]) was 0.3 nM, the “effectiveness compared with the Ki of the known inhibitor Pro-Ile” value (endopeptidase 24.16 [4]; Ki 0.9 nM versus Pro-Ile 90 μM) was 100,000 times and the Ki (endopeptidase 24.16 [4]; substrate neurotensin, 37° C., pH 7.5) was 0.9 nM. For the same molecule, the IC50 (endopeptidase 24.15 [5]) was 5 nM, the Ki (endopeptidase 24.15 [5]) was 5 nM and the IC50 (endopeptidase 24.15 [6]) was 100 nM. For the same molecule, the Ki (endopeptidase 24.15 [6]; read-out: inhibition constant Ki) was 7.5 nM, the “carboxypeptidase A inhibition” value (carboxypeptidase A) was “no carboxypeptidase A inhibition; also recorded: no effect” and the leucine aminopeptidase inhibition (leucine aminopeptidase) was “no inhibition; also recorded: no effect”. The “inhibition of the angiotensin conversion enzyme” value [7] was “no inhibition; also recorded: no effect”, the “inhibition of endopeptidase 24.11” value (endopeptidase 24.11) was “no inhibition; also recorded: no effect” and the Ki (endopeptidase 24.16 [8]) was 0.44 nM. For the same molecule, the Ki (endopeptidase 24.15 [9]) was 1.6 nM.
